Data as given in ChEMBL document CHEMBL1201862, “PubChem BioAssay data set” (2004).
Active and inactive are the calls of the source.

Legend:
[1] = target: Epstein-Barr nuclear antigen 1 (Epstein-Barr virus (strain B95-8) (HHV-4) (Human herpesvirus 4), UniProt P03211); test: inhibition of EBV nuclear antigen 1 DNA binding – biochemical, fluorescence polarization, 1536-well, dose response (AID 2381); set-up: species or system human gammaherpesvirus 4;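 note: fluorescence polarization of a Cy5 DNA probe bound by EBNA-1 protein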
[2] = target: Lytic switch protein BZLF1 (Epstein-Barr virus (strain B95-8) (HHV-4) (Human herpesvirus 4), UniProt P03206); test: inhibition of BZLF1 ZTA DNA binding – biochemical, fluorescence polarization, Epstein-Barr virus, 1536-well, counter-screen for EBNA-1 inhibitor project, dose response (AID 2377); set-up: species or system human gammaherpesvirus 4;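 note: fluorescence polarization of Cy5-labelled ZRE DNA probe bound by purified Zta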
[3] = target: T1, Peroxisome proliferator-activated receptor gamma/Nuclear receptor coactivator 1 (Homo sapiens, UniProt P37231); test: (§1) TR-FRET dose response biochemical High Throughput Screening assay for agonists of the steroid receptor coactivator 1 (SRC-1) recruitment by the peroxisome proliferator-activated receptor gamma (PPAR gamma): non-selective agonists. [Related pubchem assays (depositor defined):AID1300, AID1808, AID504735, AID631]; assay type: protein assay
[4] = target: T2, Peroxisome proliferator-activated receptor gamma/Nuclear receptor coactivator 3 (Homo sapiens, UniProt P37231); test: as §1, with “3 (SRC-3)” for “1 (SRC-1)”, “assays: 1301 (Confirmation screen.), 1048 (Primary screen.)]” for “assays (depositor defined):AID1300, AID1808, AID504735, AID631]”; assay type: functional
[5] = target: T3, Peroxisome proliferator-activated receptor gamma/Nuclear receptor coactivator 2 (Homo sapiens, UniProt P37231); test: TR-FRET dose response biochemical High Throughput Screening assay for agonists of the steroid receptor coactivator 2 (SRC-2) recruitment by the peroxisome proliferator-activated receptor gamma (PPAR gamma): non-selective agonists. [Related pubchem assays: 1297, 1032 ]; assay type: functional
Ephrin type-A receptor 4 = Ephrin type-A receptor 4 (Mus musculus, UniProt Q03137); test: EphA4 ligand-binding antagonists – biochemical, colorimetric, mouse EphA4, primary screen (AID 689); assay type: functional
Nonstructural protein 1 = Nonstructural protein 1 (Influenza A virus, UniProt Q194T2); assay type: functional, Influenza A virus (A/California/07/2009(H1N1))
[6] = target: 26S proteasome non-ATPase regulatory subunit 14 (Homo sapiens, UniProt O00487); test: inhibition of proteasome subunit RPN11 – biochemical, fluorescence polarization, uHTS hits, confirmation (AID 602368); assay type: functional
[7] = target: 72 kDa type IV collagenase (Homo sapiens, UniProt P08253); test: Dose Response validation of uHTS RPN11 inhibitor hits using a MMP-2 Fluorescence assay.; assay type: functional
Prothrombin = Prothrombin (Bos taurus, UniProt P00735); test: thrombin protease inhibitors – biochemical, fluorescence polarization, uHTS hits, dose response (AID 602369); assay type: functional
[8] = target: T4, E3 ubiquitin-protein ligase XIAP (Homo sapiens, UniProt P98170); test: Counter Screen using XIAP-Bir3 for Chemical Antagonists of Bir1/2 domains of IAP-family anti-apoptotic proteins. [Related pubchem assays (depositor defined):AID1018, AID1449, AID1514, AID1638, AID1749, AID1750, AID488957, AID488963]
[9] = target: T4, E3 ubiquitin-protein ligase XIAP; test: small molecules displacing peptide from XIAP – biochemical, IAP family, fluorescence polarization (AID 1018); assay type: functional
[10] = target: T5, Corticotropin-releasing factor receptor 2/Corticotropin-releasing factor-binding protein (Homo sapiens, UniProt P24387+Q13324); test: Dose Response confirmation of uHTS hits for small molecule antagonists of the CRF-binding protein and CRF-R2 receptor complex.; assay type: functional; settings: read-out: IC50_Mean
T5 sequence (Q13324 whole entry): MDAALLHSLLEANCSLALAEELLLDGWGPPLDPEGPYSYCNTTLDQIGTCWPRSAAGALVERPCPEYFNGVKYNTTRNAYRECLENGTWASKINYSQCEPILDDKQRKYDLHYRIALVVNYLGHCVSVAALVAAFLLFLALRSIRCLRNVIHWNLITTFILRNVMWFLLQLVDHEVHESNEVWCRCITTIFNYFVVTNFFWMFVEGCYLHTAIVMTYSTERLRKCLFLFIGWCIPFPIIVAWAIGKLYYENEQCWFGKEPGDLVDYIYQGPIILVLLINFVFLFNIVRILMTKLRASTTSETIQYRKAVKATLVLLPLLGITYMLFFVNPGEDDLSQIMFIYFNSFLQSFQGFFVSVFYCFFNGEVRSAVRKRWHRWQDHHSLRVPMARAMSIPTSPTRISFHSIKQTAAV
T5 sequence (P24387 whole entry): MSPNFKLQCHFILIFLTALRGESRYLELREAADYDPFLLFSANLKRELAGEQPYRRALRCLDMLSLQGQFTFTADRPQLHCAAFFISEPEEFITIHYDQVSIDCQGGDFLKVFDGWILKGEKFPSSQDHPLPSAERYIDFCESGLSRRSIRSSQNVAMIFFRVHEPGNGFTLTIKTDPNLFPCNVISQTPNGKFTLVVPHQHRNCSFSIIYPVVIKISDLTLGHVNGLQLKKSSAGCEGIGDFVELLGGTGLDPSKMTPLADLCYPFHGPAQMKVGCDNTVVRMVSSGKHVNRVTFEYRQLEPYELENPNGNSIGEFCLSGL

[11] = target: T5, Corticotropin-releasing factor receptor 2/Corticotropin-releasing factor-binding protein; test: activators of CRF receptor 2 with binding protein – uHTS hits, confirmation (AID 602473); assay type: functional; settings: read-out: EC50_Mean
Estrogen receptor = target: T6, Estrogen receptor (Homo sapiens, UniProt P03372);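 note: potency for inhibiting coactivator peptide recruitment to the receptor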
T6 sequence (P03372 whole entry): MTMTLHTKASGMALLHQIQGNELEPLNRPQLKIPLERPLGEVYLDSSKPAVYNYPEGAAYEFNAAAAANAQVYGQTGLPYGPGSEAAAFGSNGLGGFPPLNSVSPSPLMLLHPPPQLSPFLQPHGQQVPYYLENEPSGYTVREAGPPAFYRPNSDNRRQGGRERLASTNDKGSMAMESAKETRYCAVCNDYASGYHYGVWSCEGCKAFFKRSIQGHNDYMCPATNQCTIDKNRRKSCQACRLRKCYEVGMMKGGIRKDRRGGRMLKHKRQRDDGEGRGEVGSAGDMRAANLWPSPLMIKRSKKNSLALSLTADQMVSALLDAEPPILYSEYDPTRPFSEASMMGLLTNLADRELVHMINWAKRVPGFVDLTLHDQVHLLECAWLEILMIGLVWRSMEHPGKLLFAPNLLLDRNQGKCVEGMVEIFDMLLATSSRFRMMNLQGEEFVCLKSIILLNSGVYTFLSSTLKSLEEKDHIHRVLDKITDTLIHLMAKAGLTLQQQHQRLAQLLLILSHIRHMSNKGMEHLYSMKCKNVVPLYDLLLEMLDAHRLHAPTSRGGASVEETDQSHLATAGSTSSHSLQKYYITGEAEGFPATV

BJ [12] = test: BJ-TERT fibroblast viability loss – cell-based, RAS-independent, luminescence, dose response (AID 1933); assay type: functional; settings: Homo sapiens
[13] = target: Luciferin 4-monooxygenase (Photinus pyralis, UniProt P08659); test: Counter Screen for Luciferase-based Assay Positives. [Related pubchem assays: 620, 618, 411 ]
BJ [14] = test: cells; assay type: functional, cell-based; settings: Homo sapiens
HT-1080 = test: HT1080 cell viability loss – fluorescence readout (AID 620); assay type: functional, cell-based; settings: Homo sapiens
BJ [15] = test: BJ-TERT-LT-ST fibroblast viability loss – cell-based, RAS-independent, luminescence, dose response (AID 1935); assay type: functional; settings: Homo sapiens;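 note: BJ fibroblasts immortalized with TERT plus LT and ST oncogenes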
[16] = DRD fibroblast viability loss – cell-based, non-viral oncogenic, luminescence, dose response (AID 1934); assay type: functional; settings: Homo sapiens
HEK293 = test: EBV LMP1 TES2 canonical NF-kB signalling blockers – cell-based, HEK293, luciferase, cherry-pick, dose response (AID 588343); assay type: functional; settings: Homo sapiens
cells = assay type: functional, cell-based
[17] = target: T7, Nuclear receptor subfamily 0 group B member 1 (Homo sapiens, UniProt P51843); assay type: functional, cell-based;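 note: HEK293T cells transfected with SF-1 and DAX-1 plus StAR promoter luciferase reporter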
T7 sequence (P51843 whole entry): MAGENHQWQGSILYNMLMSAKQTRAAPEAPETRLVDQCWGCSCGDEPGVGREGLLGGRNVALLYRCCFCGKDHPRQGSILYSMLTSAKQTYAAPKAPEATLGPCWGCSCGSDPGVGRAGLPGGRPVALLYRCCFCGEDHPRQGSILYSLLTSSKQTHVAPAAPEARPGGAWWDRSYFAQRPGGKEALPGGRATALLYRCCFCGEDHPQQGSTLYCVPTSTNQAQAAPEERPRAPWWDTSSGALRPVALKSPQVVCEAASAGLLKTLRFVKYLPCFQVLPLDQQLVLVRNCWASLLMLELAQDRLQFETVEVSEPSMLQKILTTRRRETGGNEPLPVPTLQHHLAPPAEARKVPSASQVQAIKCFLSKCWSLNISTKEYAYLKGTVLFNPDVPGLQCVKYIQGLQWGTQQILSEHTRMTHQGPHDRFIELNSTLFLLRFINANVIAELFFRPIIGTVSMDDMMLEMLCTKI

[18] = target: T8, Sphingosine 1-phosphate receptor 4 (Homo sapiens, UniProt O95977); test: Fluorescence dose response cell-based high throughput screening assay for antagonists of the Sphingosine 1-Phosphate Receptor 4 (S1P4). [Related pubchem assays: 1524 (Confirmation in triplicates.), 1510 (Primary screen.)]; assay type: functional
T8 sequence (O95977 whole entry): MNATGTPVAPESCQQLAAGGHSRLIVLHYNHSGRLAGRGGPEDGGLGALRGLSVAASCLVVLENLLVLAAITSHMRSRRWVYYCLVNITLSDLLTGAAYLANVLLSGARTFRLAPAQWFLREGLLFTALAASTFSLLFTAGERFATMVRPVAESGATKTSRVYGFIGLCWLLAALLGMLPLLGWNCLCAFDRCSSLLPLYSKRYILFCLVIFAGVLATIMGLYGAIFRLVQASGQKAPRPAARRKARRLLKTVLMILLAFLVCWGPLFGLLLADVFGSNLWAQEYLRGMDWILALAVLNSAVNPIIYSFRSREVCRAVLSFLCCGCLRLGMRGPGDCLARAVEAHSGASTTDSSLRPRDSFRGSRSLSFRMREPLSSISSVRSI

[19] = target: Sphingosine 1-phosphate receptor 1 (Homo sapiens, UniProt P21453); assay type: functional;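 note: Tango beta-arrestin reporter U2OS cells stimulated with S1P near its EC80; inhibitor potency meaning antagonism of receptor activation by the natural agonist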
Vero [20] = test: cells; assay type: functional, cell-based; settings: Chlorocebus sabaeus
Vero [21] = test: cells; assay type: functional; settings: Chlorocebus sabaeus
[22] = target: T3, Peroxisome proliferator-activated receptor gamma/Nuclear receptor coactivator 2; assay type: functional
[23] = target: T1, Peroxisome proliferator-activated receptor gamma/Nuclear receptor coactivator 1; assay type: functional
[24] = target: T2, Peroxisome proliferator-activated receptor gamma/Nuclear receptor coactivator 3; assay type: functional

T1 sequence (P37231 whole entry): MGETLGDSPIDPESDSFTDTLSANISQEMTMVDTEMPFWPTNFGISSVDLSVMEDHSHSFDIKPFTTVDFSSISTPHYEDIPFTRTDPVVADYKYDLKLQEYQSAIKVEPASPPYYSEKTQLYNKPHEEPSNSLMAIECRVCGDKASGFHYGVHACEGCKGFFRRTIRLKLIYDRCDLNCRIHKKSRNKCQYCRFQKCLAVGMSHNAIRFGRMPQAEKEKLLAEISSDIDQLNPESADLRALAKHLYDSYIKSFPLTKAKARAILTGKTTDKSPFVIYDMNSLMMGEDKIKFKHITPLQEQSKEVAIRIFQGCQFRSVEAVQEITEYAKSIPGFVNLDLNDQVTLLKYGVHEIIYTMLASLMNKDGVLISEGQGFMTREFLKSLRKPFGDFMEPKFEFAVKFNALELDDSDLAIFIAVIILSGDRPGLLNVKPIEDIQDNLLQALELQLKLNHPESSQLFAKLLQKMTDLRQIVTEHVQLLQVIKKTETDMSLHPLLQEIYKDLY
T1 sequence (Q15788 whole entry, further chain): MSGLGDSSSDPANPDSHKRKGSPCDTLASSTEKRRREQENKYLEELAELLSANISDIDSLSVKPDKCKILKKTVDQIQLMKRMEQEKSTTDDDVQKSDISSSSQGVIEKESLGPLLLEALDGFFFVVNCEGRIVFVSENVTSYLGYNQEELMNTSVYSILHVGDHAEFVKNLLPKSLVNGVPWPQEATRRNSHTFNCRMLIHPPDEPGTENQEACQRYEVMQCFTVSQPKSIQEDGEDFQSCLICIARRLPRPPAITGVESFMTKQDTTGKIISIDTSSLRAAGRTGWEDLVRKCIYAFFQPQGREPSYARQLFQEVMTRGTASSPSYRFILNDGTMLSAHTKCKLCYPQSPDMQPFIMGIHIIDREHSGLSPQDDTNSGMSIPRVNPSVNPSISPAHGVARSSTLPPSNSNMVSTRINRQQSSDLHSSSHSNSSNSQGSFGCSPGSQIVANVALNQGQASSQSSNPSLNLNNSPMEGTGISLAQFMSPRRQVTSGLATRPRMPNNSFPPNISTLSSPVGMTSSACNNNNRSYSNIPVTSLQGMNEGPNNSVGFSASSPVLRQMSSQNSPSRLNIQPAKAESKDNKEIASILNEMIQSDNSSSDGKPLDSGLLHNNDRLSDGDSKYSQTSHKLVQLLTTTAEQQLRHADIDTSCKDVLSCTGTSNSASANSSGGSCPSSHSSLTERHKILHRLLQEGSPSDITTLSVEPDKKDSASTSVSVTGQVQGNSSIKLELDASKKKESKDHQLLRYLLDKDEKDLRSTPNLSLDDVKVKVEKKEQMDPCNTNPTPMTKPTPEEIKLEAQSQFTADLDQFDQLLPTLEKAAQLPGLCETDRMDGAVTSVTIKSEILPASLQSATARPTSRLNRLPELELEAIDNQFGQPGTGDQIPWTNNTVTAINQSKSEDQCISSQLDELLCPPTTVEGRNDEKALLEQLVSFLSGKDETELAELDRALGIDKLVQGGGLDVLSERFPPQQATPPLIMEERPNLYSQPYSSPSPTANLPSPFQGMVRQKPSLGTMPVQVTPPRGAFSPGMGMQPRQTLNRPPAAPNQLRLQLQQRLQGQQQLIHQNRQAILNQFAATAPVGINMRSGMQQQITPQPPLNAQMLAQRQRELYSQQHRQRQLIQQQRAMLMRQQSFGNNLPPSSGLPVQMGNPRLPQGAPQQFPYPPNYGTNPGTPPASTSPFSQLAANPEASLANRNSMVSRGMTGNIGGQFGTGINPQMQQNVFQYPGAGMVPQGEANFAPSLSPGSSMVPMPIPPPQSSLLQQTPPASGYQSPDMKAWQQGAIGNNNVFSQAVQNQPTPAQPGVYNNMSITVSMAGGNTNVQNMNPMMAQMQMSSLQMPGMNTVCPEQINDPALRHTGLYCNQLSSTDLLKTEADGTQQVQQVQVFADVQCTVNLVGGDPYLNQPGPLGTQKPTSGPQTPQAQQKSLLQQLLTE
T3 sequence (P37231 whole entry): as the sequence (P37231 whole entry) above
T3 sequence (Q15596 whole entry, further chain): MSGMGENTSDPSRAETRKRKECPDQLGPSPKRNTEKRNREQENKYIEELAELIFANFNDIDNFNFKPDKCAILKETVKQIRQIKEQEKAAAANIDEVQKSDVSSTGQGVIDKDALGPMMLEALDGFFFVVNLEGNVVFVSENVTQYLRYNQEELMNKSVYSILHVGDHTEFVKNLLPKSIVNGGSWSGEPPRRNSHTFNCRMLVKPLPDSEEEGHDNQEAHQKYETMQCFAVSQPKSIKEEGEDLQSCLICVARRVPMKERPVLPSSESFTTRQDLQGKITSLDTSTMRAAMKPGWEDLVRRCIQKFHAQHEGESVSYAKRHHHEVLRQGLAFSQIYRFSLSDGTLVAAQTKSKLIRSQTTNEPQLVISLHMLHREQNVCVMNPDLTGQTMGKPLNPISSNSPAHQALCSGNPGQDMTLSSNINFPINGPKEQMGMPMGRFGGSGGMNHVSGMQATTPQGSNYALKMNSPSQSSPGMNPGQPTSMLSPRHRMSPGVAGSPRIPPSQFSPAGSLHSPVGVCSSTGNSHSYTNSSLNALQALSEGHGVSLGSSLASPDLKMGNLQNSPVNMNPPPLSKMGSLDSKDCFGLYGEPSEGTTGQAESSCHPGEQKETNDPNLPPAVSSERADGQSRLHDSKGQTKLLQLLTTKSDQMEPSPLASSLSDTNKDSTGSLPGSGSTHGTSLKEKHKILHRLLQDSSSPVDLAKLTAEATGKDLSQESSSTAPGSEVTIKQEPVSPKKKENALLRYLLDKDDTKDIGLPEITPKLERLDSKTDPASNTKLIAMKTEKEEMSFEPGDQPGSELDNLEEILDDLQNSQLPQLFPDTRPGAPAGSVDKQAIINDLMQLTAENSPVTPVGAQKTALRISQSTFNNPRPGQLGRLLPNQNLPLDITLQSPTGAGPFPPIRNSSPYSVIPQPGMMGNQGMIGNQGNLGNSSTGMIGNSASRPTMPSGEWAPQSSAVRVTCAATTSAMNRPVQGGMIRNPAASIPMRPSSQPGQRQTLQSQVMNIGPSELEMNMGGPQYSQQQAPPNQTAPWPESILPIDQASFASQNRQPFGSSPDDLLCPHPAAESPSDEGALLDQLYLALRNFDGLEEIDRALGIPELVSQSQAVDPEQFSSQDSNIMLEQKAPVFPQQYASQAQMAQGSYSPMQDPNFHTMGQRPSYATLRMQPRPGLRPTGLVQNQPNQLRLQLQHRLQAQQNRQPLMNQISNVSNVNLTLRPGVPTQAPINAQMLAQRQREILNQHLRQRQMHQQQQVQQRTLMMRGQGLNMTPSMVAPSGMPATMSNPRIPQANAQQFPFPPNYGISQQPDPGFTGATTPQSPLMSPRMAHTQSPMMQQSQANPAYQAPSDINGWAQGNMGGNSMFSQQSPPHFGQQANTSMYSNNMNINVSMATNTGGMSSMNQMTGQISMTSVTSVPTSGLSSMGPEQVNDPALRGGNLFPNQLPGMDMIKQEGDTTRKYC
T4 sequence (P98170 whole entry): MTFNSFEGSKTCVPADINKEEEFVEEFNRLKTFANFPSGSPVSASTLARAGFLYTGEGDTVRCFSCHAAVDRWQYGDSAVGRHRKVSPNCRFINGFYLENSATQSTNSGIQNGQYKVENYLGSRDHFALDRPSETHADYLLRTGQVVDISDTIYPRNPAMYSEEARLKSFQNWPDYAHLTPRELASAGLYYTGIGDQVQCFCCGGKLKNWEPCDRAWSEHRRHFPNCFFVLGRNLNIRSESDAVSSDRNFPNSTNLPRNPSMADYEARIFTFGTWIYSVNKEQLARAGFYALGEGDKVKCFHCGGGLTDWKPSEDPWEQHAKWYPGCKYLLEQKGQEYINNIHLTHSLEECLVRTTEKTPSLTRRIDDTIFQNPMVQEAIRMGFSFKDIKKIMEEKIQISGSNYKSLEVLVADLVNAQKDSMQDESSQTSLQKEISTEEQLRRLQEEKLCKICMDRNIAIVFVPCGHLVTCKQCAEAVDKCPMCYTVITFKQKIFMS
Epstein-Barr nuclear antigen 1, sequence (P03211 whole entry): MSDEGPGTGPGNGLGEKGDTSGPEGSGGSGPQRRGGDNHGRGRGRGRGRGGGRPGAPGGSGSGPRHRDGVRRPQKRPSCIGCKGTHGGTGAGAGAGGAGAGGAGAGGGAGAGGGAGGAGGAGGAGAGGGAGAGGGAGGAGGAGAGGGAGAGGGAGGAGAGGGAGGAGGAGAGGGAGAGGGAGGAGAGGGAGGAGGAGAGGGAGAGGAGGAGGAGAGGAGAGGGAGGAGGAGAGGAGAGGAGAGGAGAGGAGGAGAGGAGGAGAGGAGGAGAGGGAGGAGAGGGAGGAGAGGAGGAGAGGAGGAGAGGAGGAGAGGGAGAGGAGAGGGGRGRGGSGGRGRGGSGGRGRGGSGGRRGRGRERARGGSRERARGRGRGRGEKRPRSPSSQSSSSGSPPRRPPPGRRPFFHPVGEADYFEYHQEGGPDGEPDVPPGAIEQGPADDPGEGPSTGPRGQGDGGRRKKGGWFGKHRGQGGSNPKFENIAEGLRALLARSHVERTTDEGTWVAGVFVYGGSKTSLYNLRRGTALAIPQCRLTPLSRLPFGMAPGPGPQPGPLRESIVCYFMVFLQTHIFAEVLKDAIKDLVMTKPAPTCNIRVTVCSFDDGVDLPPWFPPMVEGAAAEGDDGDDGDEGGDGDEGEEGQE

COc1ccc(C(=O)CSc2nnc(NC(=O)C3CC(=O)N(c4cccc(OC)c4)C3)s2)cc1 (stereo unspecified)
IC50 [1]: 5.9 µM (active)
IC50 [2]: > 111 µM (not active)

CN(C)c1ccc(/C=C/C=C2/SC(=S)N(c3ccccc3)C2=O)cc1
EC50 [3]: > 79.4 µM (inactive)
EC50 [4]: > 79.4 µM (not active)
EC50 [5]: > 79.4 µM (not active)
IC50 (Ephrin type-A receptor 4): 0.6 µM (active)
IC50 (Nonstructural protein 1): 5.48 µM (active)
IC50 [6]: 0.703 µM (active)
IC50 [7]: > 100 µM (inactive)
IC50 (Prothrombin): 0.529 µM (active)

COc1ccc(Cl)cc1NC(=O)CNc1ccccc1F
IC50 [8]: > 100 µM (inactive)
IC50 [9]: > 100 µM (not active)
IC50 [10]: > 47.1 µM (inactive)
EC50 [11]: > 53 µM (inactive)

Cc1nnc(NC(=O)CSc2nc3c(c(=O)n2CCc2ccccc2)SC(C)C3)s1 (stereo unspecified)
IC50 (Estrogen receptor): 17.5 µM (active)

c1ccc(C2=NN=C(NC3CC3)SC2)cc1
EC50 (BJ [12]): 13.1 µM (active)
EC50 [13]: 1.24 µM (active)
EC50 (BJ [14]): 12.4 µM (inconclusive)
EC50 (HT-1080): > 50 µM (not active)
EC50 (BJ [15]): > 150 µM (inconclusive)
EC50 [16]: 10.5 µM (active)
AC50 (HEK293): 2.58 µM (active)
IC50 (cells): > 67.6 µM (inactive)
IC50 [17]: > 67.6 µM (inactive)

O=C(/C=C/c1ccccc1)CC(O)(c1ccccc1)C(F)(F)F (stereo unspecified)
IC50 [18]: 1.97 µM (active)
IC50 [19]: 25.9 µM (not active)
IC50 (Vero [20]): > 25 µM (active)
CC50 (Vero [21]): 13.6 µM (active)

Cc1cc(C(=O)N/N=C/c2c[nH]nc2-c2ccccc2)cs1
EC50 [22]: > 79.4 µM (not active)
EC50 [23]: > 79.4 µM (not active)
EC50 [24]: > 79.4 µM (not active)
